From patent US7361743B2 (Pfizer Inc, priority 2004, dated 2008)
≈ marks a conversion by molar mass, not a printed value. Like-named read-outs stand apart in the source and are kept apart here.

How the values were obtained:
Haemophilus influenzae = test: Susceptibility testing, NCCLS microdilution MIC; type: cell-based; details: Haemophilus influenzae, Example A′
Enterococcus faecalis = test: Susceptibility testing, NCCLS microdilution MIC; type: cell-based; details: Enterococcus faecalis, Example A′
Bacteroides fragilis = test: Susceptibility testing, NCCLS microdilution MIC (anaerobe); type: cell-based; details: Bacteroides fragilis, ATCC25285; B. fragilis ATCC 25285; Example A′; read-out: MIC B. fragilis
Staphylococcus aureus = test: Susceptibility testing, NCCLS microdilution MIC; type: cell-based
[1] = system: E. coli transcription/translation (bacterial protein synthesis, E. coli S30 extract); test: In vitro inhibition of E. coli transcription and translation assay (TT), cell-free; type: biochemical; details: for IC50: cell-free E. coli S30 extract; for In vitro inhibition of E. coli transcription and translation compared with literature azepine compound VIII(18): cell-free TT assay, comparison in words
Description: Inhibition of bacterial protein synthesis was assayed in a cell-free E. coli transcription/translation assay.
Stock solutions of compounds were prepared at 10 mg/mL in DMSO. The assay contained less or equal to 1% (v/v) final concentration of DMSO. Three-fold serial dilutions were prepared in assay buffer at 6-fold final concentration in 96 well microtiter plate.
All vials, tubes and microtiter plates are RNase free. The Mix was freshly prepared with 10 μl H2O, 10 μl AA-M, 10 μl AA-L, 80 μl Premix and 50 μl ES30 extract. The assay was performed in a 96-well plate. Five microliters of compounds at various concentrations (6-fold final assay concentration) were preincubated with 20 μl of the mix for 5 min at room temperature. The reaction started with addition of 5 μl of plasmid (˜0.1 mg/mL pGEMBGAL), and kept at 37° C. for 1 h followed by the addition of 150 μl of OPNG solution (4 mg/mL OPNG in 0.1M NaPi, pH 7.5, 1 mM MgCl2 and 2 mM DTT). 150 μl of the reaction was transferred to a ½-area plate and increase in absorption at OD420 nm was monitored for 10 min using a Spectramax plate reader (Molecular Devices). The slope of absorption change over time is corresponding to the pathway activity.
The E. coli S30 Extract for circular DNA kit was purchased from Promega. Original plasmid pGEMBGAL was obtained from Promega and amplified via Maxiprep in house. 2-Nitrophenyl β-D-galactopyranoside was obtained from Sigma. Clindamycin HCl (USP) was purchased from Spectrum.
The inhibition are expressed as percent of control activity (without inhibitor) which is calculated according to equation (1): Inhibition %=(compound slope-blank slope)/(control slope-blank slope)*100 (1)
All IC50s were determined by fitting the experimental data to equation (2) using software DeltaGraph (DeltaPoint Inc.): Y=Y0/(1+(X/IC50)[…])+c (2)
Where Y: activity at given inhibitor concentration; Y0: activity without inhibitor; X: inhibitor concentration; d: slope; c: constant.
Lincosamides inhibit bacterial growth through binding to the bacterial 50S ribosome, thus inhibiting peptide bond formation. The transcription/translation assay provides a screening tool to measure inhibition of bacterial protein synthesis pathway at the target level without the complication of differences in membrane permeability.

[2] = ATCC31517, H. influenzae ATCC 31517, read-out: MIC H. influenzae
[3] = ATCC29212, E. faecalis ATCC 29212, read-out: MIC E. faecalis
[4] = ATCC25923, S. aureus ATCC 25923, Example A′, read-out: MIC S. aureus

Structure (SMILES) | MIC (Haemophilus influenzae; [2]) [µg/mL] | MIC (Enterococcus faecalis; [3]) [µg/mL] | MIC (Bacteroides fragilis) [µg/mL] | MIC (Staphylococcus aureus; [4]) [µg/mL] | IC50 [1] [nM] | In vitro inhibition of E. coli transcription and translation compared with literature azepine compound VIII(18) [1] | MIC (Haemophilus influenzae; strain not stated, 24 h at 35° C., read-out: MIC against Haemophilus influenzae) [µg/mL] | MIC (Enterococcus faecalis; strain not stated, 24 h at 35° C., read-out: MIC against Enterococcus faecalis) [µg/mL] | MIC (Staphylococcus aureus; Example A′, strain not stated, 24 h at 35° C., read-out: MIC against Staphylococcus aureus) [µg/mL]
CCCc1cn(CCC[C@@H]2CCN[C@H](C(=O)N[C@@H]([C@H]3O[C@H](SC)[C@H](O)[C@@H](O)[C@H]3O)[C@H](C)Cl)CC2)nn1 [Example 17′, 5-[3-(4-Propyl-[1,2,3]triazol-1-yl)-propyl]-azepane-2-carboxylic acid [2-chloro-1-(3,4,5-trihydroxy-6-methylsulfanyl-tetrahydro-pyran-2-yl)-propyl]-amide] | 4 (≈ 7.3 µM) | 8 (≈ 14.6 µM) | > 8 | 1 (≈ 1.82 µM) | 750 | markedly superior |  |  | 
CS[C@H]1O[C@H]([C@H](NC(=O)C2CC[C@H](CCCO)CCN2)[C@H](C)Cl)[C@H](O)[C@H](O)[C@H]1O (stereo in doubt) [Example 2′, 5-(3-Hydroxy-propyl)-azepane-2-carboxylic acid [2-chloro-1-(3,4,5-trihydroxy-6-methylsulfanyl-tetrahydro-pyran-2-yl)-propyl]-amide] | 0.5 (≈ 1.1 µM) | 1 (≈ 2.2 µM) | 4 (≈ 8.79 µM) | 0.5 (≈ 1.1 µM) | 400 | markedly superior |  |  | 
CS[C@H]1O[C@H]([C@H](NC(=O)C2CC[C@H](CCCCC#N)CCN2)[C@H](C)Cl)[C@H](O)[C@H](O)[C@H]1O (stereo in doubt) [Example 8′, 5-(4-Cyano-butyl)-azepane-2-carboxylic acid [2-chloro-1-(3,4,5-trihydroxy-6-methylsulfanyl-tetrahydro-pyran-2-yl)-propyl]-amide] | 0.5 (≈ 1.05 µM) | 0.06 (≈ 0.126 µM) | 1 (≈ 2.09 µM) | 0.125 (≈ 0.261 µM) | 190 | markedly superior |  |  | 
CS[C@H]1O[C@H]([C@H](NC(=O)[C@@H]2CC[C@H](CCCC(F)F)CCN2)[C@H](C)Cl)[C@H](O)[C@H](O)[C@H]1O [Example 11′, 5-(4,4-Difluoro-butyl)-azepane-2-carboxylic acid [2-chloro-1-(3,4,5-trihydroxy-6-methylsulfanyl-tetrahydro-pyran-2-yl)-propyl]-amide] | 0.25 (≈ 0.511 µM) | 0.06 (≈ 0.123 µM) | 1 (≈ 2.04 µM) | 0.06 (≈ 0.123 µM) | 250 | markedly superior |  |  | 
CS[C@H]1O[C@H]([C@H](NC(=O)[C@@H]2CC[C@H](CCC(F)F)CCN2)[C@H](C)Cl)[C@H](O)[C@H](O)[C@H]1O [Example 10′, 5-(3,3-Difluoro-propyl)-azepane-2-carboxylic acid [2-chloro-1-(3,4,5-trihydroxy-6-methylsulfanyl-tetrahydro-pyran-2-yl)-propyl]-amide] | 0.5 (≈ 1.05 µM) | 0.125 (≈ 0.263 µM) | 1 (≈ 2.11 µM) | 0.06 (≈ 0.126 µM) | 530 | markedly superior |  |  | 
CS[C@H]1O[C@H]([C@H](NC(=O)C2CC[C@H](CCCCO)CCN2)[C@H](C)Cl)[C@H](O)[C@H](O)[C@H]1O (stereo in doubt) [Example 1′, 5-(4-Hydroxy-butyl)-azepane-2-carboxylic acid [2-chloro-1-(3,4,5-trihydroxy-6-methylsulfanyl-tetrahydro-pyran-2-yl)-propyl]-amide] | 0.5 (≈ 1.07 µM) | 1 (≈ 2.13 µM) | 8 (≈ 17.1 µM) | 0.25 (≈ 0.533 µM) | 530 | markedly superior |  |  | 
COCCCC[C@@H]1CCN[C@H](C(=O)N[C@@H]([C@H]2O[C@H](SC)[C@H](O)[C@@H](O)[C@H]2O)[C@H](C)Cl)CC1 [Example 12′, 5-(4-Methoxy-butyl)-azepane-2-carboxylic acid [2-chloro-1-(3,4,5-trihydroxy-6-methylsulfanyl-tetrahydro-pyran-2-yl)-propyl]-amide] | 0.5 (≈ 1.04 µM) | 0.5 (≈ 1.04 µM) | 2 (≈ 4.14 µM) | 0.06 (≈ 0.124 µM) | 290 | markedly superior |  |  | 
CS[C@H]1O[C@H]([C@H](NC(=O)[C@@H]2CC[C@H](CCCCOc3cccnc3)CCN2)[C@H](C)Cl)[C@H](O)[C@H](O)[C@H]1O [Example 14′, 5-[4-(Pyridin-3-yloxy)-butyl]-azepane-2-carboxylic acid [2-chloro-1-(3,4,5-trihydroxy-6-methylsulfanyl-tetrahydro-pyran-2-yl)-propyl]-amide] | 1 (≈ 1.83 µM) | 0.5 (≈ 0.916 µM) | 8 (≈ 14.6 µM) | 0.125 (≈ 0.229 µM) | 200 | markedly superior |  |  | 
CS[C@H]1O[C@H]([C@H](NC(=O)[C@@H]2CCCCCN2)[C@H](C)Cl)[C@H](O)[C@H](O)[C@H]1O [VIII(18), Azepane-2-carboxylic acid [2-chloro-1-(3,4,5-trihydroxy-6-methylsulfanyl-tetrahydro-pyran-2-yl)-propyl]-amide, reference compound] | > 8 | 8 (≈ 20.2 µM) | 2 (≈ 5.04 µM) | 4 (≈ 10.1 µM) | 21000 |  | > 8 | 8 (≈ 20.2 µM) | 4 (≈ 10.1 µM)
CS[C@H]1O[C@H]([C@H](NC(=O)C2CC[C@H](CCCn3ccnn3)CCN2)[C@H](C)Cl)[C@H](O)[C@H](O)[C@H]1O (stereo in doubt) [Example 9′, 5-(3-[1,2,3]Triazol-1-yl-propyl)-azepane-2-carboxylic acid [2-chloro-1-(3,4,5-trihydroxy-6-methylsulfanyl-tetrahydro-pyran-2-yl)-propyl]-amide] | 2 (≈ 3.95 µM) | 4 (≈ 7.9 µM) | > 8 | 0.5 (≈ 0.988 µM) | 280 | markedly superior |  |  | 
CS[C@H]1O[C@H]([C@H](NC(=O)[C@@H]2CC[C@H](CCCOc3cccnc3)CCN2)[C@H](C)Cl)[C@H](O)[C@H](O)[C@H]1O [Example 15′, 5-[3-(Pyridin-3-yloxy)-propyl]-azepane-2-carboxylic acid [2-chloro-1-(3,4,5-trihydroxy-6-methylsulfanyl-tetrahydro-pyran-2-yl)-propyl]-amide] | 2 (≈ 3.76 µM) | 0.5 (≈ 0.94 µM) | > 8 | 0.125 (≈ 0.235 µM) | 1100 | markedly superior |  |  | 
CS[C@H]1O[C@H]([C@H](NC(=O)[C@@H]2CC[C@H](CCCn3cc(C(C)C)nn3)CCN2)[C@H](C)Cl)[C@H](O)[C@H](O)[C@H]1O [Example 18′, 5-[3-(4-(2-Propyl)-[1,2,3]triazol-1-yl)-propyl]-azepane-2-carboxylic acid [2-chloro-1-(3,4,5-trihydroxy-6-methylsulfanyl-tetrahydro-pyran-2-yl)-propyl]-amide] | 4 (≈ 7.3 µM) | 4 (≈ 7.3 µM) | > 8 | 1 (≈ 1.82 µM) | 440 | markedly superior |  |  | 
